Measurements taken from publication PMC8453936, “Development and in vitro Profiling of Dual FXR/LTA4H Modulators” (Chemmedchem, 2021).
Where two headings read alike, the source gives them in different places.

Key:
[1] = target: T1, full-length human FXR (Homo sapiens, UniProt Q96RI1); conditions: mean±S.E.M., n≥3, previously reported, cited from earlier work
T1 construct: coding for the full‐length human nuclear receptors FXR and RXRα; expressed in transfected cells; host or cells: HeLa
T1 sequence (Q96RI1 1-486): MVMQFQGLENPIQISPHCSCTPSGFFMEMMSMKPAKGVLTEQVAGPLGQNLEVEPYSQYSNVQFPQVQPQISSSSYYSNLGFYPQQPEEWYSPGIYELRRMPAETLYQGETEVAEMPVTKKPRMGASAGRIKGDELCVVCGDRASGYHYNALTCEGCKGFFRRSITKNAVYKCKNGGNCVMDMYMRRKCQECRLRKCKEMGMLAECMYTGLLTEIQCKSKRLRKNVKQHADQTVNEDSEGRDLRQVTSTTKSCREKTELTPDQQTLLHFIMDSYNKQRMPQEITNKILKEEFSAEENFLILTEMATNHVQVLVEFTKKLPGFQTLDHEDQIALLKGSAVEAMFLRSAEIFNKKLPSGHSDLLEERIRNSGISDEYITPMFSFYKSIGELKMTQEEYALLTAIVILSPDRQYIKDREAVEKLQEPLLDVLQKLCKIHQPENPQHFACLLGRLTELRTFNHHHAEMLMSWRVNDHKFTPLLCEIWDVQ
T1 sequence (P19793 1-462 partner): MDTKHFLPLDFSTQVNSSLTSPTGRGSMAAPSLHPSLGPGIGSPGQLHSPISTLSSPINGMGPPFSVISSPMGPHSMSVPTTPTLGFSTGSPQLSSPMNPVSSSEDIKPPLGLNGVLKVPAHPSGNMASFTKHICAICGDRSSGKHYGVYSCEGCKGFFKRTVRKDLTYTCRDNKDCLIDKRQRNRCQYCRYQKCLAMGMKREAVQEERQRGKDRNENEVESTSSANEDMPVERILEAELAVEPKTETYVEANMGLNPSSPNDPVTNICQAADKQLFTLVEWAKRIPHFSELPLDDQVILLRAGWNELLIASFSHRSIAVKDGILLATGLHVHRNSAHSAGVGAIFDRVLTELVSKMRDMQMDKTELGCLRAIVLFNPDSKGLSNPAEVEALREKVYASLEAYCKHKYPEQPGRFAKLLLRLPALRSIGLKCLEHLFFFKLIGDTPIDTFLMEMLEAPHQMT

[2] = target: T1, full-length human FXR; experiment: Full-length FXR:RXR reporter gene assay (BSEP promoter, HeLa, transiently transfected); assay type: cell-based; conditions: mean±S.E.M., n≥3
Method: Full‐length FXR:RXR reporter gene assay. HeLa cells were grown in DMEM high glucose supplemented with 10 % FCS, sodium pyruvate (1 mM), penicillin (100 U/mL) and streptomycin (100 μg/mL) at 37 °C and 5 % CO2 and seeded in 96‐well plates 24 h before transfection with a density of 8000 cells per well. 3.5 h before transfection, medium was changed to DMEM high glucose, supplemented with sodium pyruvate (1 mM), penicillin (100 U/mL), streptomycin (100 μg/mL) and 0.5 % charcoal‐stripped FCS. Cells were then transiently transfected with using the calcium phosphate transfection method with pGL3basic‐BSEP[26, 27] (containing a shortened construct of the promotor of the bile salt export protein (BSEP) cloned into the SacI/NheI cleavage site in front of the luciferase gene), pcDNA3‐hFXR[26] and pSG5‐hRXR[38] coding for the full‐length human nuclear receptors FXR and RXRα, and pRL‐SV40 (Promega) for normalization of transfection efficiency and cell growth. 16 h after transfection, medium was changed to DMEM high glucose, supplemented with sodium pyruvate (1 mM), penicillin (100 U/mL), streptomycin (100 μg/mL) and 0.5 % charcoal‐stripped FCS. 24 h after transfection, medium was changed to DMEM without phenol red, supplemented with sodium pyruvate (1 mM), penicillin (100 U/mL), streptomycin (100 μg/mL), L‐glutamine (2 mM) and 0.5 % charcoal‐stripped FCS, now additionally containing 0.1 % DMSO and the respective test compound or 0.1 % DMSO alone as untreated control. Each sample was tested in triplicate wells and each experiment was repeated independently at least three times. Following 24 h incubation with the test compounds, cells were assayed for luciferase activity using Dual‐Glo Luciferase Assay System (Promega) according to the manufacturer's protocol. Luminescence was measured with a Tecan Spark M luminometer (Tecan). Normalization of transfection efficiency and cell growth was done by division of firefly luciferase data by Renilla luciferase data multiplied by 1000 resulting in relative light units (RLU). Fold activation was obtained by dividing the mean RLU of the tested compound at a respective concentration by the mean RLU of untreated control. EC50 and standard error of the mean values were calculated with the mean fold activation values of at least three independent experiments with SigmaPlot 10.0 (Systat Software GmbH, Erkrath, Germany) using a four‐parameter logistic regression.

[3] = full-length FXR reporter gene assay, BSEP promoter, HeLa

Row | Structure (SMILES) | FXR efficacy (maximum FXR activation relative to 3 μM GW4064) ([1]; 3 μM GW4064 = 100 % activation) [%] | EC50 [1, 3] [nM] | FXR efficacy (maximum FXR activation relative to 3 μM GW4064) ([2]; 3 μM GW4064 = 100 % activation) [%] | EC50 [2, 3] [nM]
1 | O=C(O)c1cccc(NC(=O)c2ccc(OCCCc3ccccc3)cc2)c1 [compound 8] | 22±1 | 29 ± 6 | – | –
2 | O=C(O)c1ccnc(NC(=O)c2ccc(OCCCc3ccccc3)cc2)c1 [compound 19, 2‐(4‐(3‐Phenylpropoxy)benzamido)isonicotinic acid] | – | – | 21±1 | 460 ± 80
